# Test results published in US20250092043A1, “Kinase Inhibitors and Degraders” (Incyte Corporation, priority 2023, published 2025).
# Molecular target: T1, JAK2 (Homo sapiens, UniProt O60674, V617F)
# T1 construct: their effect on JAK2 protein degradation in SET2 cells; host or cells: SET2 cells (human essential thrombocythemia)
# Test: Western blot quantitation of JAK2 degradation in SET2 cells
# Assay type: cell-based
# Details: 0.5 μM compound (cells marked **), 8 hours treatment, western blot densitometry vs. DMSO vehicle
# Experimental: Example E. Western Blot Analysis of JAK2 Dependent SET2 Cells Treated with Compounds of the Present Disclosure
# SET2 cells (DSMZ, catalog number ACC 608) are isolated from a person with human essential thrombocythemia and carry the JAK2 V617F mutation.
# SET2 cells were cultured in RPMI culture medium (Gibco, catalog number 11875085) supplemented with 1% penicillin-streptomycin-glutamine (Thermo Fisher Scientific, catalog number 10378016) and 20% fetal bovine serum (Gibco, catalog number 10438034). Cultured cells were maintained at 37° C., 5% CO2 in the incubator.
# Approximately 1,000,000 cells/well were added in 6-well plate containing 1.5 ml culture media with specified concentrations of compounds of the present disclosure or DMSO control. Cells were treated with concentrations of 10 uM, 5 uM, 1 uM, and 0.5 uM. Proteasome inhibitor MG-132 (Cell signaling, catalog number 2194) was added at 20 uM to an additional 10 uM compound treatment. The treatment period was 8 hours. After 8 hours, cells were collected in 1.5 mL microcentrifuge tubes. Tubes were centrifuged at 1500 rpm for 5 min. Supernatant was aspirated and samples were washed with 1 mL of cold PBS. The samples were centrifuged again at 1500 rpm for 5 min, supernatant was aspirated. The sample pellets were lysed using 150 μL of 1× lysing buffer (Cell Signaling Technologies—catalog number 9803S) supplemented with 1× Halt™ Protease and Phosphatase Inhibitor Cocktail (Thermo Fisher Scientific—catalog number 78447). Using Pierce™ BCA Protein Assay Kit (Thermo Fisher Scientific—catalog number 23225), protein concentration of the samples were quantitated. After normalizing sample concentration to approximately 20 ug/well, samples were loaded onto 4-12% Tris-glycine gels. Gels were transferred to nitrocellulose membranes using iBlot 2 Dry Blotting System and iBlot™ 2 Transfer Stacks, nitrocellulose (Thermo Fisher Scientific—catalog number IB23001). Following transfer, membranes were blocked with StartingBlock (Thermo Fisher Scientific—catalog number 37543). After 1 hour of blocking membranes, they were probed for JAK2, pSTAT5, STAT5, CRBN, and GAPDH (Cell Signaling—catalog numbers 3230, 4322, 25656, 71810, and 5174 respectively).
# Compounds of the present disclosure were screened at various concentrations to determine their effect on JAK2 protein degradation in SET2 cells, using methods as described above. DMSO was used as the vehicle control with no PROTAC® added. Co-administration of 20 μM of the proteasome inhibitor MG-132 with the PROTAC® compound at its highest concentration (i.e., 5 or 10 μM) tested was conducted to support the hypothesis that the degradation was driven by the ubiquitin-proteosome system (UPS). Degradation was evaluated by western blot densitometry quantitation using the FluorChem M instrument software to analyze the intensity of the JAK2 band signal at various concentrations of PROTAC® compound vs. the JAK2 band signal of the DMSO vehicle. It is noted that ˜82% of JAK2 exists as the V617F mutant, with the remaining 18% of JAK2 being WT. Therefore, if the V617F mutant JAK2 is selectively degraded over the WT, the maximum degradation is ˜80%. Degradation was graded as A: […]; B: ≥40% to <60% degradation; C: ≥20% to <40% degradation, D: <20% to ≥10%; E<10%. ** refers to degradation at 0.5 μM.
# T1 sequence (O60674 whole entry V617F): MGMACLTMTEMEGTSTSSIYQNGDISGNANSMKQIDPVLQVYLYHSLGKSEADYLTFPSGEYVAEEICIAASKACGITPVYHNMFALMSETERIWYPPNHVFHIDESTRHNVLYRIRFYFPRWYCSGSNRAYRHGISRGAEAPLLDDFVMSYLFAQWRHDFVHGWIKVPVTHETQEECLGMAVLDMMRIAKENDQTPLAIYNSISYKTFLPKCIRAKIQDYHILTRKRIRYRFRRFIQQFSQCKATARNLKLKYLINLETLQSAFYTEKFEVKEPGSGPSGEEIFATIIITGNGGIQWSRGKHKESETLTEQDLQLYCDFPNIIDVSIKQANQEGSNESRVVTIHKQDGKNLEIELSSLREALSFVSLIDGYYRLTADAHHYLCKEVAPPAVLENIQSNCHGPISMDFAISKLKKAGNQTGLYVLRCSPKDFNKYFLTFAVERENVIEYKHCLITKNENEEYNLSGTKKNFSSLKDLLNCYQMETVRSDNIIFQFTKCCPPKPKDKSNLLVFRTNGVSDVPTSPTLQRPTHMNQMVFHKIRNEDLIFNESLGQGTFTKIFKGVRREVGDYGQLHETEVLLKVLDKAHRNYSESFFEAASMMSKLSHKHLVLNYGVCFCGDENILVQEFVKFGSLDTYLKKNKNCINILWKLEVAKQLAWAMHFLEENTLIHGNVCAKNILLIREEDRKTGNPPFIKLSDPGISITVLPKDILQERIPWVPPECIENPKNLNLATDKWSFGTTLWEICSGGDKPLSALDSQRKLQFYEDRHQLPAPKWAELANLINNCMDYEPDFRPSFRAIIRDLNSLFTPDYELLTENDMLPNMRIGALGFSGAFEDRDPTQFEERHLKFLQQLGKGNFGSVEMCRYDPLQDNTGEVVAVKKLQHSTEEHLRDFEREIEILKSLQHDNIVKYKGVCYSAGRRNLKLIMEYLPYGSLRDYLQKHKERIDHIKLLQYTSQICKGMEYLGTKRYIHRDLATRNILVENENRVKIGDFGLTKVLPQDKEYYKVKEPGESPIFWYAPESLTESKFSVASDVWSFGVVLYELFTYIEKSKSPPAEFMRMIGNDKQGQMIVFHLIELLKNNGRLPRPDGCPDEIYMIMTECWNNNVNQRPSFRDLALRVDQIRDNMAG
row,JAK2 % Degradation in SET2,SMILES
1,B** (B: ≥40% to <60% degradation),"COC(=O)N[C@@H]1CC[C@@H](n2c(=O)n(C)c3cnc4[nH]c(-c5ccc(C(=O)N6CCC(CN7CCN(c8ccc9c(c8)C(=O)N(C8CCC(=O)NC8=O)C9=O)CC7)CC6)c(F)c5)c(-c5ccc6c(cnn6C(C)C)c5)c4c32)C1 (stereo partly drawn) [Example 32, methyl ((1R,3R)-3-(7-(4-(4-((4-(2-(2,6-dioxopiperidin-3-yl)-1,3-dioxoisoindolin-5-yl)piperazin-1-yl)methyl)piperidine-1-carbonyl)-3-fluorophenyl)-8-(1-isopropyl-1H-indazol-5-yl)-3-methyl-2-oxo-3,6-dihydroimidazo[4,5-d]pyrrolo[2,3-b]pyridin-1(2H)-yl)cyclopentyl) carbamate]"
2,A** (A: ≥600% degradation),"COC(=O)N[C@@H]1CC[C@@H](n2c(=O)n(C)c3cnc4[nH]c(-c5ccc(C(=O)N6CCC(CN7CCN(c8ccc9c(c8)C(=O)N(C8CCC(=O)NC8=O)C9=O)CC7)CC6)cc5)c(-c5ccc6c(cnn6C(C)C)c5)c4c32)C1 (stereo partly drawn) [Example 34, methyl ((1R,3R)-3-(7-(4-(4-((4-(2-(2,6-dioxopiperidin-3-yl)-1,3-dioxoisoindolin-5-yl)piperazin-1-yl)methyl)piperidine-1-carbonyl)phenyl)-8-(1-isopropyl-1H-indazol-5-yl)-3-methyl-2-oxo-3,6-dihydroimidazo[4,5-d]pyrrolo[2,3-b]pyridin-1(2H)-yl)cyclopentyl) carbamate]"

# Same assay, conditions: 10 μM compound, 8 hours treatment, western blot densitometry vs. DMSO vehicle
row,JAK2 % Degradation in SET2,SMILES
1,C (C: ≥20% to <40% degradation),"COC(=O)N[C@@H]1CC[C@@H](n2c(=O)n(C)c3cnc4[nH]c(-c5ccc(C(=O)NCCOCCOCC(=O)N[C@H](C(=O)N6C[C@H](O)C[C@H]6C(=O)NCc6ccc(-c7scnc7C)cc6)C(C)(C)C)c(F)c5)c(-c5ccc6c(cnn6C(C)C)c5)c4c32)C1 [Example 14, methyl ((1R,3R)-3-(7-(3-fluoro-4-((2-(2-(2-(((S)-1-((2S,4R)-4-hydroxy-2-((4-(4-methylthiazol-5-yl)benzyl)carbamoyl)pyrrolidin-1-yl)-3,3-dimethyl-1-oxobutan-2-yl)amino)-2-oxoethoxy)ethoxy)ethyl)carbamoyl)phenyl)-8-(1-isopropyl-1H-indazol-5-yl)-3-methyl-2-oxo-3,6-dihydroimidazo[4,5-d]pyrrolo[2,3-b]pyridin-1(2H)-yl)cyclopentyl) carbamate]"
2,E (E<10%),"COC(=O)N[C@@H]1CC[C@@H](n2c(=O)n(C)c3cnc4[nH]c(-c5ccc(C(=O)NCCOCC(=O)Nc6ccc7c(c6)CN(C6CCC(=O)NC6=O)C7=O)c(F)c5)c(-c5ccc6c(cnn6C(C)C)c5)c4c32)C1 (stereo partly drawn) [Example 17, methyl ((1R,3R)-3-(7-(4-((2-(2-((2-(2,6-dioxopiperidin-3-yl)-1-oxoisoindolin-5-yl)amino)-2-oxoethoxy)ethyl)carbamoyl)-3-fluorophenyl)-8-(1-isopropyl-1H-indazol-5-yl)-3-methyl-2-oxo-3,6-dihydroimidazo[4,5-d]pyrrolo[2,3-b]pyridin-1(2H)-yl)cyclopentyl) carbamate]"
3,B (B: ≥40% to <60% degradation),"COC(=O)N[C@@H]1CC[C@@H](n2c(=O)n(C)c3cnc4[nH]c(-c5ccc(C(=O)N6CCC(CN7CCN(c8cccc9c8C(=O)N(C8CCC(=O)NC8=O)C9=O)CC7)CC6)c(OC)c5)c(-c5ccc6c(cnn6C(C)C)c5)c4c32)C1 (stereo partly drawn) [Example 28, methyl ((1R,3R)-3-(7-(4-(4-((4-(2-(2,6-dioxopiperidin-3-yl)-1,3-dioxoisoindolin-4-yl)piperazin-1-yl)methyl)piperidine-1-carbonyl)-3-methoxyphenyl)-8-(1-isopropyl-1H-indazol-5-yl)-3-methyl-2-oxo-3,6-dihydroimidazo[4,5-d]pyrrolo[2,3-b]pyridin-1(2H)-yl)cyclopentyl) carbamate]"

# Continued, molecule first:
row,SMILES,JAK2 % Degradation in SET2
1,"COC(=O)N[C@@H]1CC[C@@H](n2c(=O)n(C)c3cnc4[nH]c(-c5ccc(C(=O)N6CCC(CN7CCN(c8cccc9c8C(=O)N(C8CCC(=O)NC8=O)C9=O)CC7)CC6)c(F)c5)c(-c5ccc6c(cnn6C(C)C)c5)c4c32)C1 (stereo partly drawn) [Example 1, Methyl((1R,3R)-3-(7-(4-(4-((4-(2-(2,6-dioxopiperidin-3-yl)-1,3-dioxoisoindolin-4-yl)piperazin-1-yl)methyl)piperidine-1-carbonyl)-3-fluorophenyl)-8-(1-isopropyl-1H-indazol-5-yl)-3-methyl-2-oxo-3,6-dihydroimidazo[4,5-d]pyrrolo[2,3-b]pyridin-1(2H)-yl)cyclopentyl)carbamate]",A (A: ≥600% degradation)
2,"COC(=O)N[C@@H]1CC[C@@H](n2c(=O)n(C)c3cnc4[nH]c(-c5ccc(C(=O)NCCOCC(=O)Nc6cccc7c6CN(C6CCC(=O)NC6=O)C7=O)c(F)c5)c(-c5ccc6c(cnn6C(C)C)c5)c4c32)C1 (stereo partly drawn) [Example 24, methyl ((1R,3R)-3-(7-(4-((2-(2-((2-(2,6-dioxopiperidin-3-yl)-1-oxoisoindolin-4-yl)amino)-2-oxoethoxy)ethyl)carbamoyl)-3-fluorophenyl)-8-(1-isopropyl-1H-indazol-5-yl)-3-methyl-2-oxo-3,6-dihydroimidazo[4,5-d]pyrrolo[2,3-b]pyridin-1(2H)-yl)cyclopentyl) carbamate]",C (C: ≥20% to <40% degradation)
3,"COC(=O)N[C@@H]1CC[C@@H](n2c(=O)n(C)c3cnc4[nH]c(-c5ccc(C(=O)N(C)CCOCC(=O)Nc6ccc7c(c6)CN(C6CCC(=O)NC6=O)C7=O)c(F)c5)c(-c5ccc6c(cnn6C(C)C)c5)c4c32)C1 (stereo partly drawn) [Example 27, methyl ((1R,3R)-3-(7-(4-((2-(2-((2-(2,6-dioxopiperidin-3-yl)-1-oxoisoindolin-5-yl)amino)-2-oxoethoxy)ethyl)(methyl)carbamoyl)-3-fluorophenyl)-8-(1-isopropyl-1H-indazol-5-yl)-3-methyl-2-oxo-3,6-dihydroimidazo[4,5-d]pyrrolo[2,3-b]pyridin-1(2H)-yl)cyclopentyl) carbamate]",D (D: <20% to ≥10%)
4,"CCNC(=O)[C@H](Cc1ccc(F)cc1)NC(=O)[C@@H]1CCCN1C(=O)[C@@H](NC(=O)[C@H](C)NCCOCCNC(=O)c1ccc(-c2[nH]c3ncc4c(c3c2-c2ccc3c(cnn3C(C)C)c2)n([C@@H]2CC[C@@H](NC(=O)OC)C2)c(=O)n4C)cc1F)C1CCCCC1 [Example 31, methyl ((1R,3R)-3-(7-(4-((2-(2-(((S)-1-(((S)-1-cyclohexyl-2-((S)-2-(((S)-1-(ethylamino)-3-(4-fluorophenyl)-1-oxopropan-2-yl)carbamoyl)pyrrolidin-1-yl)-2-oxoethyl)amino)-1-oxopropan-2-yl)amino)ethoxy)ethyl)carbamoyl)-3-fluorophenyl)-8-(1-isopropyl-1H-indazol-5-yl)-3-methyl-2-oxo-3,6-dihydroimidazo[4,5-d]pyrrolo[2,3-b]pyridin-1(2H)-yl)cyclopentyl) carbamate]",C (C: ≥20% to <40% degradation)
5,"COC(=O)N[C@@H]1CC[C@@H](n2c(=O)n(C)c3cnc4[nH]c(-c5ccc(C(=O)N6CCC(CN7CCN(c8cccc9c8C(=O)N(C8CCC(=O)NC8=O)C9=O)CC7)CC6)cc5)c(-c5ccc6c(cnn6C(C)C)c5)c4c32)C1 (stereo partly drawn) [Example 33, methyl ((1R,3R)-3-(7-(4-(4-((4-(2-(2,6-dioxopiperidin-3-yl)-1,3-dioxoisoindolin-4-yl)piperazin-1-yl)methyl)piperidine-1-carbonyl)phenyl)-8-(1-isopropyl-1H-indazol-5-yl)-3-methyl-2-oxo-3,6-dihydroimidazo[4,5-d]pyrrolo[2,3-b]pyridin-1(2H)-yl)cyclopentyl) carbamate]",A (A: ≥600% degradation)
